# Columns and labels:
# [1] = system: ovarian carcinoma cell line, A2780; test: MTT cell viability assay, combinations of phytocannabinoids (Example 2); assay type: cell-based; settings: Homo sapiens, A2780 cells
# Procedure: (§1) An ovarian carcinoma cell line, A2780 was grown and maintained in RPMI 1640 medium supplemented with 10% fetal bovine serum at 37° C., 5% CO2. The cells were plated in 96-well culture plates at a density of 1×10^4 cells/well and allowed to adhere at 37° C. for 24 hours.
# The different phytocannabinoid combinations that were tested were: A: cannabidiol (CBD) in combination with tetrahydrocannabivarin (THCV) and B: CBD in combination with cannabigerol (CBG).
# The cells were starved with 1% serum overnight. In Experiment A various doses of CBD (1 nM-10 μM) were tested in the absence or presence of 1 hours pre-treatment of THCV (1 μM) for various incubation periods. In Experiment B various doses of CBD (1 nM-10 μM) were tested in the absence or presence of CBG (1 nM-100 μM) for various incubation periods.
# A cell viability assay, MTT, was performed following four different incubation times of 24 hours, 48 hours (CBG combination only), 72 hours and 96 hours.
# (§2) The supernatant was removed and MTT (3-(4,5-dimethylthiazol-2-yl)-2,5-diphenyltetrazolium bromide) was added for 4 hours. The ability of cells to form formazan crystals by active mitochondrial respiration was determined by using a Microplate reader after dissolving the crystals in DMSO.
# (§3) Cytotoxicity was expressed as a relative percentage of the absorbance measured at 540 nm in the control and drug-treated cells. IC50 values were also calculated.
# (§4) In all experiments data were presented as the mean and analysed using ANOVA followed by Dunnet's t-test; n=4.
# [2] = system: ovarian carcinoma cell line, A2780; test: MTT cell viability assay, single phytocannabinoids (Example 1); assay type: cell-based; settings: A2780 cells; for IC50: MTT
# Procedure: as §1
# The cells were starved with 1% serum overnight, then treated with various concentrations of different phytocannabinoid ([…]) for various incubation periods.
# The different phytocannabinoids tested were: cannabidiol (CBD); cannabidiol acid (CBDA); cannabigerol (CBG); cannabigerolic acid (CBGA); cannabigerol propyl variant (CBGV); and tetrahydrocannabivarin (THCV).
# A cell viability assay, MTT, was performed following four different incubation times of 24 hours, 48 hours, 72 hours and 96 hours.
# as §2, §3, §4
# [3] = A2780, 24 h, Experiment A (CBD with or without 1 hour pre-treatment with THCV 1 μM), 24 hours
# [4] = A2780, 24 h, Experiment B (CBD in absence or presence of CBG), 24 hours
# [5] = A2780, 48 h, Experiment B (CBD in absence or presence of CBG), 48 hours
# [6] = A2780, 72 h, Experiment A (CBD with or without 1 hour pre-treatment with THCV 1 μM), 72 hours
# [7] = A2780, 72 h, Experiment B (CBD in absence or presence of CBG), 72 hours
# [8] = A2780, 96 h, Experiment A (CBD with or without 1 hour pre-treatment with THCV 1 μM), 96 hours
# [9] = A2780, 96 h, Experiment B (CBD in absence or presence of CBG), 96 hours
# [10] = 24 hours after the cannabinoids were added
# [11] = Homo sapiens, 24 hours incubation
# [12] = Homo sapiens, 48 hours incubation
# [13] = Homo sapiens, 72 hours incubation
# [14] = Homo sapiens, 96 hours incubation
Molecule,"IC50 [1, 3]","IC50 [1, 4]","IC50 [1, 5]","IC50 [1, 6]","IC50 [1, 7]","IC50 [1, 8]","IC50 [1, 9]","potency in words [2, 10]","IC50 [2, 11]","IC50 [2, 12]","IC50 [2, 13]","IC50 [2, 14]",potency in words ([2]; after 48 hours),IC50 ([2]; 24 hours incubation),IC50 ([2]; 48 hours incubation),IC50 ([2]; 72 hours incubation)
"C=C(C)[C@@H]1CCC(C)=C[C@H]1c1c(O)cc(CCCCC)cc1O [CBD, Cannabidiol]",12.5 µM,11.8 µM,6.85 µM,5.87 µM,7.92 µM,5.62 µM,4.43 µM,very potent,0.98 µM,0.95 µM,1.9 µM,3.63 µM,,,,
"C=C(C)[C@@H]1CCC(C)=C[C@H]1c1c(O)cc(CCCCC)c(C(=O)O)c1O [CBDA, Cannabidiolic acid]",,,,,,,,,16 µM,9.5 µM,10 µM,11.8 µM,,,,
"CCCCCc1cc(O)c(C/C=C(\C)CCC=C(C)C)c(O)c1 [CBG, Cannabigerol]",,13.9 µM,9.48 µM,,9.96 µM,,8.96 µM,very potent,2 µM,0.83 µM,0.85 µM,3.38 µM,marginally more potent than CBD,,,
"CCCc1cc(O)c(C/C=C(\C)CCC=C(C)C)c(O)c1 [CBGV, Cannabigerol propyl variant]",,,,,,,,,6 µM,3.5 µM,4 µM,,,,,
"CCCc1cc(O)c2c(c1)OC(C)(C)[C@@H]1CCC(C)=C[C@@H]21 [THCV, Tetrahydrocannabivarin]",16.2 µM,,,14.8 µM,,10.5 µM,,,8 µM,5.75 µM,8.75 µM,9 µM,,,,
Cannabigerolic acid [CBGA],,,,,,,,,,,,,,12.5 µM,9.9 µM,9.25 µM
